For one assay, the target named is T1, human COX-2 (Homo sapiens, UniProt P35354).
T1 construct: expressed in transfected cells
T1 sequence (P35354 18-604): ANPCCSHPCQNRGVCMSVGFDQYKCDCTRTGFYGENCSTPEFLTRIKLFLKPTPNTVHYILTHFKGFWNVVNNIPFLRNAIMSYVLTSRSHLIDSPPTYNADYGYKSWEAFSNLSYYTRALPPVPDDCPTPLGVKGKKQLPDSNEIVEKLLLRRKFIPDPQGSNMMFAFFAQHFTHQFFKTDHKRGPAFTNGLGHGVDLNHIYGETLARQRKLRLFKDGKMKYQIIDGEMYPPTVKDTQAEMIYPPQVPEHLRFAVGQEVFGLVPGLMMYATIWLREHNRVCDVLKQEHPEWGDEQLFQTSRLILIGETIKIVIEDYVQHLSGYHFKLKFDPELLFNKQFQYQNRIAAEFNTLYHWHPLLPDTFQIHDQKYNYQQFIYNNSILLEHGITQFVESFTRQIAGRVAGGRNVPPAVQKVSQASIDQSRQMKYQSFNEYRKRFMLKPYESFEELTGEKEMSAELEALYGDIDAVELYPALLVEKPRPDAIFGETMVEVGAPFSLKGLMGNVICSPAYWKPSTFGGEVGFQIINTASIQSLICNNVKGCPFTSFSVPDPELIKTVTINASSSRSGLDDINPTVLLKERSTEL
Kind of assay: Inhibition of PGE2 release in COS cells stably transfected with human COX-2. It counts as cell-based. The following applies: 30 μM arachidonic acid, PGE2 release by enzyme immunoassay.

The next assay deals with T2, human COX-1 (Homo sapiens, UniProt P23219).
T2 construct: expressed in transfected cells
T2 sequence (P23219 24-599): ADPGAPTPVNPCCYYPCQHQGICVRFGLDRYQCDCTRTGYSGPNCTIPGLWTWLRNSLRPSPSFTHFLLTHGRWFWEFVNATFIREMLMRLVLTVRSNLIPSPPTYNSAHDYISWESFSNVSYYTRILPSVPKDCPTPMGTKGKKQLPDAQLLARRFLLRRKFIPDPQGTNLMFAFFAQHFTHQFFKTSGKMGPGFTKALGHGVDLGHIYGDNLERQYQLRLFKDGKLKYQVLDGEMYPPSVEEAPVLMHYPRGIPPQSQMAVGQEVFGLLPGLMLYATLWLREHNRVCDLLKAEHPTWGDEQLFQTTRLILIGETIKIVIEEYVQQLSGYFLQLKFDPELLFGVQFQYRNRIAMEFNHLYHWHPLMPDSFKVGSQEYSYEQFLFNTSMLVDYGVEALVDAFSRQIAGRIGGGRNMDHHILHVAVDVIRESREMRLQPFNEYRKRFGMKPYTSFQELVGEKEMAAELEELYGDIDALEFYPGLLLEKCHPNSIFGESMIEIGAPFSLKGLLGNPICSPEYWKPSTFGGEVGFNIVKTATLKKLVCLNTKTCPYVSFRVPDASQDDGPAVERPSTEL
Kind of assay: Inhibition of PGE2 release in COS cells stably transfected with human COX-1. In kind it is cell-based. The conditions noted are these: 30 μM arachidonic acid, PGE2 release by enzyme immunoassay.

Broadly, the IC50 is the point on the concentration scale where inhibition reaches its midpoint.

Description for human COX-1: (§1) Inhibitory activity against human COX-1and COX-2was assessed in COS cells which had been stably transfected with cDNA for human COX-1and human COX-2. 24Hours prior to experiment, COS cells were transferred from the 175 cm^2flasks in which they were grown, onto 24-well cell culture plates using the following procedure. The incubation medium (Dulbecco's modified eagles medium (DMEM) supplemented with heat-inactivated foetal calf serum (10% v/v), penicillin (100 IU/ml), streptomycin (100 μg/ml) and geneticin (600 μg/ml)) was removed from a flask of confluent cells (1flask at confluency contains approximately 1×10^7 cells). 10 ml of phosphate buffered saline (PBS) was added to the flask to wash the cells. Having discarded the PBS, cells were then rinsed in 10 ml trypsin for 20 seconds, after which the trypsin was removed and the flask placed in an incubator (37°) for 1-2 minutes until cells became detached from the flask. The flask was then removed from the incubator and cells resuspended in 10 ml of fresh incubation medium. The contents of the flask was transferred to a 250 ml sterile container and the volume of incubation medium subsequently made up to 100 ml. […] If more than 1 flask of cells were required, the cells from the individual flasks were combined before being dispensed into the 24-well plates.
(§2) Following the overnight incubation, the incubation medium was completely removed from the 24-well cell culture plates and replaced with 250 μl fresh DMEM (37° C.). The test compounds were made up to 250× the required test concentration in DMSO and were added to the wells in a volume of 1 μl. […] Plates were then incubated for a further 15 minutes, after which the incubation medium was removed from each well of the plates and stored at −20° C., prior to determination of prostaglandin E2(PGE2) levels using enzyme immunoassay. […] The selectivity ratio of inhibition of COX-1 versus COX-2 was calculated by comparing respective IC50 values.
Description for human COX-2: as §1, §2

As to `COc1ccc(-c2nn3ncccc3c2-c2ccc(S(C)(=O)=O)cc2)cc1` [2(ii), 3-(4-Methanesulfonyl-phenyl)-2-(4-methoxy-phenyl)-pyrazolo[1,5-b]pyridazine], the IC50 against human COX-2 was under 10 nM. The compound `CCOc1ccc(-c2nn3ncccc3c2-c2ccc(S(C)(=O)=O)cc2)cc1` [3(ii), 2-(4-Ethoxy-phenyl)-3-(4-methanesulfonyl-phenyl)-pyrazolo[1,5-b]pyridazine] registered an IC50 at human COX-1 of over 100 µM. `CS(=O)(=O)c1ccc(-c2c(-c3cccc(F)c3)nn3nc(OC(F)F)ccc23)cc1` [7(viii), 6-Difluoromethoxy-2-(3-fluoro-phenyl)-3-(4-methanesulfonyl-phenyl)-pyrazolo[1,5-b]pyridazine]: the figures for the IC50 at human COX-1 and on human COX-2 were over 55.2 µM and 16 nM, respectively. Consider `CS(=O)(=O)c1ccc(-c2c(-c3ccc(OC(F)F)cc3)nn3ncccc23)cc1` [Example 5, 2-(4-Difluoromethoxy-phenyl)-3-(4-methanesulfonyl-phenyl)-pyrazolo[1,5-b]pyridazine], for which the 50% inhibitory concentration (IC50) on human COX-1 is over 100 µM; against human COX-2, 21 nM.

As for `CS(=O)(=O)c1ccc(-c2c(-c3ccc(F)cc3)nn3nc(OC(F)F)ccc23)cc1` [1(v), 6-Difluoromethoxy-2-(4-fluoro-phenyl)-3-(4-methanesulfonyl-phenyl)-pyrazolo[1,5-b]pyridazine], the values for the concentration for half-maximal inhibition (IC50) on human COX-1 and against human COX-2 were over 100 µM and 35 nM, respectively.

These data come from patent publication US6861429B2, “2,3-diaryl-pyrazolo[1,5-b]pyridazines derivatives, their preparation and their use as cyclooxygenase 2 (COX-2) inhibitors” (SmithKline Beecham Corporation, priority 1997, dated 2005).
